Test results published in patent EP0056152B1, “Process for the after-treatment of linen” (Henkel Kommanditgesellschaft auf Aktien, priority 1981, dated 1982).
Read-outs that look alike come from different tables or passages of the source.

Assays:
Assay in all cases: Agar plate test with treated textile pieces (inhibition zone)
Format in all cases: cell-based
Epidermophyton floccosum = details: azole 1 g/l in liquor with 3 g/l fabric softener, 30°C
Procedure: (§1) Zur Prüfung der antimikrobiellen Wirksamkeit wurde die erfindungsgemäße Ausrüstung der Textilien wie folgt vorgenommen: • 2 x 2 cm große Textilstücke aus Baumwollköper (BW), Wolle (WO) und Nylon (NY) wurden in einer Behandlungsflotte von 20°C 10 Minuten lang bewegt und anschließend bei Raumtemperatur getrocknet. Der Behandlungsflotte waren verschiedene Azolverbindungen in unterschiedlicher Konzentration (s. Tabelle) und 3 g pro 1 Waschflotte eines handelsüblichen Wäscheweichspülmittels mit einem Gehalt an 5 Gew.-% Dimethyl-ditalgalkyl-ammoniumchlorid als textilweichmachender quartärer Ammoniumverbindung zugesetzt. Die Textilproben wurden auf mit unterschiedlichen Testkeimen beimpfte Agarplatten aufgelegt, bis zum Eintritt eines vollen Wachstums bei 30°C bebrütet und dann die antimikrobiellen Effekte abgelesen. Dabei bedeuten: • + = volles Wachstum • 0 = kein Hemmhof, kein Wachstum auf den Läppchen • Zahl = Hemmhof in mm um das Gewebe • (Zahl) = Größe des Hemmhofes mit diffuser Begrenzung in mm.
(§2) In einer weiteren Versuchsreihe wurden andere Azolverbindungen bei einer Anwendungskonzentration von 1 g/I Behandlungsflotte gemeinsam mit dem Wäschebehandlungsmittel der Beispiele 1 bis 7 (Konzentration 3 g/I Behandlungsflotte) eingesetzt. Auch hier wurde ein Vergleichsversuch ohne Azolverbindung durchgeführt.

[1] = test system: Trichophyton mentagrophytes; details: 30°C; for zone of inhibition at 1000 µg/mL: azole 1 g/l in liquor with 3 g/l fabric softener; for zone of inhibition at 100 µg/mL: azole 0,1 g/l in liquor with 3 g/l fabric softener; for zone of inhibition at 200 µg/mL: azole 0,2 g/l in liquor with 3 g/l fabric softener
Procedure: as §1
Zum Vergleich wurde die antimikrobielle Wirkung eines azolverbindungsfreien Wäschenachbehandlungsmittels geprüft. Die Ergebnisse sind in der folgenden Tabelle aufgeführt:
as §2

Microsporum gypseum = details: Nannizzia gypsea, 30°C, read-out: Hemmhof in mm um das Gewebe; for zone of inhibition at 100 µg/mL: azole 0,1 g/l in liquor with 3 g/l fabric softener; for zone of inhibition at 200 µg/mL: azole 0,2 g/l in liquor with 3 g/l fabric softener
Procedure: as §1
(§3) Zum Vergleich wurde die antimikrobielle Wirkung eines azolverbindungsfreien Wäschenachbehandlungsmittels geprüft. Die Ergebnisse sind in der folgenden Tabelle aufgeführt: […]

Trichophyton rubrum = details: 30°C, read-out: Hemmhof in mm um das Gewebe; for zone of inhibition at 100 µg/mL: azole 0,1 g/l in liquor with 3 g/l fabric softener; for zone of inhibition at 200 µg/mL: azole 0,2 g/l in liquor with 3 g/l fabric softener
Procedure: as §1, §3

[2] = BW (Baumwollköper), read-out: Hemmhof in mm um das Gewebe
[3] = NY (Nylon), read-out: Hemmhof in mm um das Gewebe
[4] = WO (Wolle), read-out: Hemmhof in mm um das Gewebe
[5] = value in brackets, NY (Nylon), read-out: Größe des Hemmhofes mit diffuser Begrenzung in mm
[6] = value in brackets, BW (Baumwollköper), read-out: Größe des Hemmhofes mit diffuser Begrenzung in mm
[7] = value in brackets, WO (Wolle), read-out: Größe des Hemmhofes mit diffuser Begrenzung in mm

Structure (SMILES) | zone of inhibition at 1000 µg/mL (Epidermophyton floccosum; [2]) [mm] | zone of inhibition at 1000 µg/mL (Epidermophyton floccosum; [4]) [mm] | zone of inhibition at 1000 µg/mL (Epidermophyton floccosum; [5]) [mm] | zone of inhibition at 1000 µg/mL [1, 2] [mm] | zone of inhibition at 1000 µg/mL [1, 3] [mm] | zone of inhibition at 1000 µg/mL [1, 4] [mm] | zone of inhibition at 1000 µg/mL [1, 6] [mm] | zone of inhibition at 1000 µg/mL [1, 7] [mm] | zone of inhibition at 100 µg/mL [1, 2] [mm] | zone of inhibition at 200 µg/mL [1, 2] [mm] | zone of inhibition at 100 µg/mL [1, 3] [mm] | zone of inhibition at 200 µg/mL [1, 3] [mm] | zone of inhibition at 100 µg/mL [1, 4] [mm] | zone of inhibition at 200 µg/mL [1, 4] [mm] | zone of inhibition at 100 µg/mL (Microsporum gypseum; BW (Baumwollköper)) [mm] | zone of inhibition at 200 µg/mL (Microsporum gypseum; BW (Baumwollköper)) [mm] | zone of inhibition at 100 µg/mL (Microsporum gypseum; NY (Nylon)) [mm] | zone of inhibition at 200 µg/mL (Microsporum gypseum; NY (Nylon)) [mm] | zone of inhibition at 100 µg/mL (Microsporum gypseum; WO (Wolle)) [mm] | zone of inhibition at 200 µg/mL (Microsporum gypseum; WO (Wolle)) [mm] | also measured
C#CC(c1ccccc1)(c1ccccc1)n1ccnc1 [compound 001] | 21 | 21 | 12 | 15 | 9 | 17 | 20 | 20 |  |  |  |  |  |  |  |  |  |  |  |  | zone of inhibition at 1000 µg/mL (Epidermophyton floccosum; [3]): 7 mm; zone of inhibition at 1000 µg/mL [1, 5]: 12 mm
CC(C)(C)C(=O)C(Oc1ccc(Cl)cc1)n1ccnc1 (centres unmarked) [compound 003] | 3 | 10 | 0.5 | 5 | 0.5 | 9 | 10 | 16 |  |  |  |  |  |  |  |  |  |  |  |  | zone of inhibition at 1000 µg/mL (Epidermophyton floccosum; [6]): 9 mm; zone of inhibition at 1000 µg/mL (Epidermophyton floccosum; [7]): 17 mm
Cc1ccccc1C1(n2ccnc2)c2ccccc2-c2ccccc21 [compound 009] | 10 | 11 | 10 | 7 | 10 | 9 | 10 | 14 |  |  |  |  |  |  |  |  |  |  |  |  | zone of inhibition at 1000 µg/mL (Epidermophyton floccosum; [3]): 5 mm; zone of inhibition at 1000 µg/mL (Epidermophyton floccosum; [6]): 13 mm; zone of inhibition at 1000 µg/mL (Epidermophyton floccosum; [7]): 17 mm; zone of inhibition at 1000 µg/mL [1, 5]: 14 mm
O=[N+]([O-])CC(c1c(Cl)cccc1Cl)n1cncn1 (centres unmarked) [compound 045] |  |  |  |  |  |  |  |  | 11 | 16 | 8 | 12 | 8 | 11 | 10 | 20 | 7 | 14 | 10 | 12 | zone of inhibition at 100 µg/mL (Trichophyton rubrum; BW (Baumwollköper)): 12 mm; zone of inhibition at 200 µg/mL (Trichophyton rubrum; BW (Baumwollköper)): 25 mm; zone of inhibition at 100 µg/mL (Trichophyton rubrum; NY (Nylon)): 7 mm; zone of inhibition at 200 µg/mL (Trichophyton rubrum; NY (Nylon)): 7 mm; zone of inhibition at 100 µg/mL (Trichophyton rubrum; WO (Wolle)): 10 mm; zone of inhibition at 200 µg/mL (Trichophyton rubrum; WO (Wolle)): 18 mm
O=[N+]([O-])CC(c1c(Cl)cccc1Cl)n1cnc(Cl)n1 (centres unmarked) [compound 046] |  |  |  |  |  |  |  |  | 7 | 13 | 5 | 10 | 13 | 13 | 14 | 16 | 8 | 10 | 8 | 10 | zone of inhibition at 100 µg/mL (Trichophyton rubrum; BW (Baumwollköper)): 9 mm; zone of inhibition at 200 µg/mL (Trichophyton rubrum; BW (Baumwollköper)): 12 mm; zone of inhibition at 100 µg/mL (Trichophyton rubrum; NY (Nylon)): 4 mm; zone of inhibition at 200 µg/mL (Trichophyton rubrum; NY (Nylon)): 7 mm; zone of inhibition at 100 µg/mL (Trichophyton rubrum; WO (Wolle)): 13 mm; zone of inhibition at 200 µg/mL (Trichophyton rubrum; WO (Wolle)): 7 mm
CC(C)(C)C(c1ccccc1)(c1ccccc1)n1ccnc1 [compound 065] |  |  |  |  |  |  |  |  | 26 | 28 | 25 | 26 | 25 | 28 | 26 | 28 | 14 | 25 | 21 | 25 | zone of inhibition at 100 µg/mL (Trichophyton rubrum; BW (Baumwollköper)): 25 mm; zone of inhibition at 200 µg/mL (Trichophyton rubrum; BW (Baumwollköper)): 29 mm; zone of inhibition at 100 µg/mL (Trichophyton rubrum; NY (Nylon)): 18 mm; zone of inhibition at 200 µg/mL (Trichophyton rubrum; NY (Nylon)): 23 mm; zone of inhibition at 100 µg/mL (Trichophyton rubrum; WO (Wolle)): 23 mm; zone of inhibition at 200 µg/mL (Trichophyton rubrum; WO (Wolle)): 28 mm
